Results on 32 compounds are retold here after US8586505B2 (SDS Biotech K. K., priority 2009, dated 2013).

Each structure is given as a SMILES string.

Assay type in all cases: in vivo
For experiment [1], the system named is Pseudoperonospora cubensis. Description: Test of examining control effect on Pseudoperonospora cubensis (potted cucumber plants). The settings on record: 96 h, 10% wettable powder adjusted to 125 ppm, 15 ml/pot sprayed on potted cucumber plants one day before spray inoculation, assessed after 1 day wet chamber and 3 days greenhouse, read-out: Determination of control effect (preventive value) on Pseudoperonospora cubensis. As to the method:
(§1) Calculation of Preventive Value: Preventive value={(untreated lesion area rate−treated lesion area rate)/untreated lesion area rate}×100
(§2) Using the thus calculated preventive value, the control effect of each compound was determined in accordance with the following standards.
(§3) High control effect: 100%≧preventive value≧60%
(§4) Low control effect: 60%>preventive value≧0%
Using a spray gun, an agent solution prepared by adjusting a 10% wettable powder of each sample compound to 125 ppm (hereinafter referred to as a “sample agent solution”) was sprayed to potted cucumber plants (variety: Sagamihanjiro, 2.5 leave stage) in a concentration of 15 ml/pot. One day after the spraying, a conidial suspension of Pseudoperonospora cubensis (conidial concentration: 1.0×10^4 cells/ml) was applied to the plants by spray inoculation. After completion of the inoculation, the plants were left at 21° C. under wet chamber conditions for 1 day, and were then left in a greenhouse for 3 days, so that they were fully infected with the aforementioned disease. Thereafter, the disease level on each leaf was compared with that on an untreated leaf, and the control effect of each compound was determined in the same manner as in Example 3(1).

The next experiment deals with Sphaerotheca fuliginea. Description: Test of examining control effect on Sphaerotheca fuliginea (potted cucumber plants). The settings on record: Podosphaera fuliginea, 336 h; 10% wettable powder adjusted to 125 ppm, 15 ml/pot sprayed on potted cucumber plants one day before spray inoculation; assessed after 14 days in greenhouse; read-out: Determination of control effect (preventive value) on Sphaerotheca fuliginea. The procedure: as §1, §2, §3, §4
Using a spray gun, an agent solution prepared by adjusting a 10% wettable powder of each sample compound to 125 ppm (hereinafter referred to as a “sample agent solution”) was sprayed to potted cucumber plants (variety: Sagamihanjiro, 2nd leave stage) in a concentration of 15 ml/pot. One day after the spraying, a conidial suspension of Sphaerotheca fuliginea (conidial concentration: 1.0×10^5 cells/ml) was applied to the plants by spray inoculation. The plants were left in a greenhouse for 14 days, so that they were fully infected with the aforementioned disease. Thereafter, the disease level on each leaf was compared with that on an untreated leaf, and the control effect of each compound was determined in the same manner as in Example 3(1).

The subject of a further experiment is Phytophthora infestans. The experiment in a line: whole plant or invertebrate. The settings on record: in Solanum lycopersicum, 96 h, read-out: Determination of control effect (preventive value).

Turning to `O=Cc1nc(C#CCCNc2ncnc3sccc23)cs1` [compound 69], the pest or weed control at 125 µg/mL is 60 to 100% in experiment [1] and 0 to 60% with Sphaerotheca fuliginea. For the same compound, the pest or weed control at 125 ppm in the experiment with Phytophthora infestans fell in the range of 60 to 100%.
Take `CC(C)(C)[Si](C)(C)OCc1nc(C#CCCNc2ncnc3sccc23)cs1` [compound 71]: the pest or weed control at 125 µg/mL (in experiment [1]; with Sphaerotheca fuliginea) was 60 to 100% each time. The pest or weed control at 125 ppm with Phytophthora infestans lay within 60 to 100%.
Consider `COCc1nc(C#CCCNc2ncnc3sccc23)cs1` [compound 72], for which the pest or weed control at 125 µg/mL (in experiment [1]; in the experiment on Sphaerotheca fuliginea) was 60 to 100% in each case. The pest or weed control at 125 ppm in the experiment with Phytophthora infestans lay within 60 to 100%.
In the case of `C#CCOCc1nc(C#CCCNc2ncnc3sccc23)cs1` [compound 74], the pest or weed control at 125 µg/mL (in experiment [1]; with Sphaerotheca fuliginea) was 60 to 100% in each case. For the same compound, the pest or weed control at 125 ppm in the experiment with Phytophthora infestans is 60 to 100%.
For the compound `C(#Cc1csc(Cc2ccccc2)n1)CCNc1ncnc2sccc12` [compound 75, 4-[4-(2-Benzylthiazol-4-yl)-3-butynylamino]thieno[2,3-d]pyrimidine], the pest or weed control at 125 µg/mL (in experiment [1]; in the experiment on Sphaerotheca fuliginea) was 60 to 100% in each case. Moreover, in the experiment on Phytophthora infestans, the pest or weed control at 125 ppm lay in the range of 60 to 100%.
As for `C(#Cc1csc(-c2cccs2)n1)CCNc1ncnc2sccc12` [compound 79], the pest or weed control at 125 µg/mL (in experiment [1]; with Sphaerotheca fuliginea) was 60 to 100% in each case. Also, in the experiment with Phytophthora infestans, the pest or weed control at 125 ppm lay in the range of 0 to 60%.
Regarding `C(#Cc1csc(Oc2ccccc2)n1)CCNc1ncnc2sccc12` [compound 83, 4-[4-(2-Phenoxythiazol-4-yl)-3-butynylamino]thieno[2,3-d]pyrimidine], the pest or weed control at 125 µg/mL (in experiment [1]; in the experiment on Sphaerotheca fuliginea) was 60 to 100% each time. The pest or weed control at 125 ppm in the experiment on Phytophthora infestans is 0 to 60%.
In the case of `CN1C(=O)c2ccc(C#CCCNc3ncnc4sccc34)cc2C1=O` [compound 84], the values for the pest or weed control at 125 µg/mL (in experiment [1]; in the experiment with Sphaerotheca fuliginea) were 60 to 100% and 0 to 60%, respectively. In addition, the pest or weed control at 125 ppm in the experiment with Phytophthora infestans lay within 60 to 100%.
In the case of `COc1ccc2nc(C#CCCNc3ncnc4sccc34)sc2c1` [compound 85], the pest or weed control at 125 µg/mL (in experiment [1]; in the experiment with Sphaerotheca fuliginea) was 60 to 100% throughout. The pest or weed control at 125 ppm with Phytophthora infestans is 60 to 100%.
Turning to `C#CCCNc1ncnc2ccccc12` [compound 86], the pest or weed control at 125 µg/mL (in experiment [1]; with Sphaerotheca fuliginea) was 60 to 100% throughout. Moreover, in the experiment with Phytophthora infestans, the pest or weed control at 125 ppm is 0 to 60%.
In the case of `C[Si](C)(C)C#CCCNc1ncnc2ccccc12` [compound 87], the pest or weed control at 125 µg/mL (in experiment [1]; with Sphaerotheca fuliginea) was 60 to 100% throughout. The pest or weed control at 125 ppm with Phytophthora infestans lay within 60 to 100%.
Consider `C(#CC1CC1)CCNc1ncnc2ccccc12` [compound 90], for which the pest or weed control at 125 µg/mL (in experiment [1]; with Sphaerotheca fuliginea) was 60 to 100% throughout. In addition, the pest or weed control at 125 ppm in the experiment on Phytophthora infestans was in the range of 0 to 60%.
In the case of `C(#CC1CCCCC1)CCNc1ncnc2ccccc12` [compound 91], the pest or weed control at 125 µg/mL (in experiment [1]; with Sphaerotheca fuliginea) was 60 to 100% throughout. Besides, in the experiment on Phytophthora infestans, the pest or weed control at 125 ppm lay in the range of 60 to 100%.
Take `C/C(C#N)=C/C#CCCNc1ncnc2ccccc12` [compound 93]: the pest or weed control at 125 µg/mL (in experiment [1]; in the experiment on Sphaerotheca fuliginea) was 60 to 100% throughout. The pest or weed control at 125 ppm with Phytophthora infestans was in the range of 60 to 100%.
As for `C(#CC1=CCCCC1)CCNc1ncnc2ccccc12` [compound 94], the pest or weed control at 125 µg/mL (in experiment [1]; with Sphaerotheca fuliginea) was 60 to 100% throughout. Further, in the experiment on Phytophthora infestans, the pest or weed control at 125 ppm was in the range of 0 to 60%.
With `Clc1ccccc1C#CCCNc1ncnc2ccccc12` [compound 97], the pest or weed control at 125 µg/mL (in experiment [1]; in the experiment on Sphaerotheca fuliginea) was 60 to 100% throughout. In addition, the pest or weed control at 125 ppm in the experiment on Phytophthora infestans was in the range of 60 to 100%.
Consider `Ic1ccc(C#CCCNc2ncnc3ccccc23)cc1` [compound 98], for which the pest or weed control at 125 µg/mL (in experiment [1]; in the experiment on Sphaerotheca fuliginea) was 60 to 100% throughout. In addition, in the experiment on Phytophthora infestans, the pest or weed control at 125 ppm is 0 to 60%.
Regarding `FCc1ccccc1C#CCCNc1ncnc2ccccc12` [compound 99], the pest or weed control at 125 µg/mL (in experiment [1]; in the experiment with Sphaerotheca fuliginea) was 60 to 100% in each case. Further, the pest or weed control at 125 ppm in the experiment on Phytophthora infestans is 60 to 100%.
As for `FC(F)c1ccccc1C#CCCNc1ncnc2ccccc12` [compound 100], the pest or weed control at 125 µg/mL (in experiment [1]; in the experiment with Sphaerotheca fuliginea) was 60 to 100% in each case. Also, the pest or weed control at 125 ppm in the experiment with Phytophthora infestans lay within 60 to 100%.
Consider `FC(F)(F)c1ccccc1C#CCCNc1ncnc2ccccc12` [compound 101], for which the pest or weed control at 125 µg/mL (in experiment [1]; with Sphaerotheca fuliginea) was 60 to 100% each time. Also, the pest or weed control at 125 ppm in the experiment on Phytophthora infestans was 60 to 100%.
Turning to `N#Cc1ccccc1C#CCCNc1ncnc2ccccc12` [compound 102], the pest or weed control at 125 µg/mL (in experiment [1]; with Sphaerotheca fuliginea) was 60 to 100% in each case. Also, the pest or weed control at 125 ppm with Phytophthora infestans fell in the range of 60 to 100%.
For `CCc1ccccc1C#CCCNc1ncnc2ccccc12` [compound 103], the pest or weed control at 125 µg/mL (in experiment [1]; in the experiment with Sphaerotheca fuliginea) was 60 to 100% each time. In the experiment with Phytophthora infestans, the pest or weed control at 125 ppm fell in the range of 60 to 100%.
On to `CC(C)c1ccccc1C#CCCNc1ncnc2ccccc12` [compound 104], for which the pest or weed control at 125 µg/mL (in experiment [1]; in the experiment on Sphaerotheca fuliginea) was 60 to 100% each time. The pest or weed control at 125 ppm in the experiment on Phytophthora infestans fell in the range of 60 to 100%.
`C=Cc1ccc(C#CCCNc2ncnc3ccccc23)cc1` [compound 110]: the pest or weed control at 125 µg/mL (in experiment [1]; with Sphaerotheca fuliginea) was 60 to 100% each time. In addition, the pest or weed control at 125 ppm with Phytophthora infestans fell in the range of 60 to 100%.
Take `C[Si](C)(C)c1ccc(C#CCCNc2ncnc3ccccc23)cc1` [compound 111]: the pest or weed control at 125 µg/mL (in experiment [1]; with Sphaerotheca fuliginea) was 60 to 100% throughout. Further, the pest or weed control at 125 ppm with Phytophthora infestans is 0 to 60%.
With `C(#Cc1ccccc1-c1ccccc1)CCNc1ncnc2ccccc12` [compound 114], the pest or weed control at 125 µg/mL (in experiment [1]; in the experiment with Sphaerotheca fuliginea) was 60 to 100% in each case. Also, the pest or weed control at 125 ppm in the experiment on Phytophthora infestans lay in the range of 0 to 60%.
With `COc1ccccc1C#CCCNc1ncnc2ccccc12` [compound 115], the pest or weed control at 125 µg/mL (in experiment [1]; in the experiment on Sphaerotheca fuliginea) was 60 to 100% throughout. Besides, the pest or weed control at 125 ppm in the experiment on Phytophthora infestans lay within 60 to 100%.
In the case of `CSc1ccc(C#CCCNc2ncnc3ccccc23)cc1` [compound 117], the pest or weed control at 125 µg/mL (in experiment [1]; with Sphaerotheca fuliginea) was 60 to 100% each time. For the same compound, the pest or weed control at 125 ppm with Phytophthora infestans was 60 to 100%.
Regarding `CC(C)Oc1ccccc1C#CCCNc1ncnc2ccccc12` [compound 119], the pest or weed control at 125 µg/mL (in experiment [1]; in the experiment with Sphaerotheca fuliginea) was 60 to 100% in each case. The pest or weed control at 125 ppm with Phytophthora infestans lay within 60 to 100%.
Regarding `COCOc1ccc(C#CCCNc2ncnc3ccccc23)cc1` [compound 121], the pest or weed control at 125 µg/mL (in experiment [1]; with Sphaerotheca fuliginea) was 60 to 100% throughout. In addition, in the experiment on Phytophthora infestans, the pest or weed control at 125 ppm was in the range of 60 to 100%.
Consider `CN(C)S(=O)(=O)c1ccc(C#CCCNc2ncnc3ccccc23)cc1` [compound 122], for which the pest or weed control at 125 µg/mL in experiment [1] is 60 to 100%; in the experiment on Sphaerotheca fuliginea, 0 to 60%. The pest or weed control at 125 ppm in the experiment on Phytophthora infestans lay in the range of 0 to 60%.
Turning to `CS(=O)(=O)Nc1ccc(C#CCCNc2ncnc3ccccc23)cc1` [compound 123], the pest or weed control at 125 µg/mL in experiment [1] fell in the range of 60 to 100%; in the experiment with Sphaerotheca fuliginea, 0 to 60%. For the same compound, in the experiment with Phytophthora infestans, the pest or weed control at 125 ppm was in the range of 0 to 60%.
